molecular target: T1, NLRP3 (Homo sapiens, UniProt Q96P20); assay: IL-1β Secretion Assay (NLRP3-dependent IL1β secretion in THP1 cells); assay type: cell-based; settings: PMA-differentiated THP-1 cells; compounds incubated 20 h; 2.5 μM Nigericin 3 h; HTRF IL-1β readout; read-out: IC50 IL-1β Inhibition
T1 construct: host or cells: THP-1 cells differentiated with PMA
In short: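 THP-1 cells differentiated with 100 ng/mL PMA for 24 h, then given compound (7-point 3-fold series, 1:200 from DMSO) for 20 h in RPMI+5% FBS. NLRP3 activated with 2.5 μM nigericin for 3 h; secreted IL-1β measured by HTRF; IC50 from logistic fit of % inhibition.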

T1 sequence (Q96P20 whole entry): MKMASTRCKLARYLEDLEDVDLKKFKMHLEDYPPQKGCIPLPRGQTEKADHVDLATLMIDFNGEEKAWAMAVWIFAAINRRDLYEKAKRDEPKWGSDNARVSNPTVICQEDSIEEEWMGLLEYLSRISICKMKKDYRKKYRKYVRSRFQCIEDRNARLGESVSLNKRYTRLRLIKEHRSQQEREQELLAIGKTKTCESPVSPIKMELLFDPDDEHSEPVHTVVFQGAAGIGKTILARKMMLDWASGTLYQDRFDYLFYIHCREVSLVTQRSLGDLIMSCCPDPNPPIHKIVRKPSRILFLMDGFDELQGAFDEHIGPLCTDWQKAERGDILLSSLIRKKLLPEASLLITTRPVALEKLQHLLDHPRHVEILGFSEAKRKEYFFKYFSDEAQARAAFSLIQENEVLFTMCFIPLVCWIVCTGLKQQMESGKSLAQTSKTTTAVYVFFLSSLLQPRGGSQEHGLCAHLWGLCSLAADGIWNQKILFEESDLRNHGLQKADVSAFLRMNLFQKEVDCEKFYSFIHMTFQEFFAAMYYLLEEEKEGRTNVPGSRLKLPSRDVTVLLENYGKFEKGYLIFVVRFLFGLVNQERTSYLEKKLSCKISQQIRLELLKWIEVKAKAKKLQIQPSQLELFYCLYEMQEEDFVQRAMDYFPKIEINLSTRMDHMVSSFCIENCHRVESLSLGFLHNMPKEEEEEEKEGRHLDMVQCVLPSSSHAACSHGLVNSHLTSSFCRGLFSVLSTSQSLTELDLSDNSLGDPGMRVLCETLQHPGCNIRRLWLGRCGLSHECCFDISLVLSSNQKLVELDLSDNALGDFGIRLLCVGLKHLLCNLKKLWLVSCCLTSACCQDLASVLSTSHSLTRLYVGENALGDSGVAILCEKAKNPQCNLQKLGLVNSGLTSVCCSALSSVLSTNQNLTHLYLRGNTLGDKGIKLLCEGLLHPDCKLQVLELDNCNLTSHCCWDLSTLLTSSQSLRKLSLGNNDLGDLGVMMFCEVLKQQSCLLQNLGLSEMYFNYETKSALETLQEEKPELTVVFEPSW

| IC50 | SMILES |
| --- | --- |
| < 1 nM | OCCN1CCC[C@@H](Nc2nnc(-c3ccc(Br)cc3OC(F)F)c3cncn23)C1 [Compound 198, 2-[(3R)-3-({1-[4-bromo-2-(difluoromethoxy)phenyl]imidazo[1,5-d][1,2,4]triazin-4-yl}amino)piperidin-1-yl]ethan-1-ol] |
| 1 to 10 nM | COc1ccc(-c2nnc(N[C@@H]3CCCN(CCO)C3)n3ccc(F)c23)c(Cl)c1 [Compound 83, 2-[(3R)-3-{[1-(2-chloro-4-methoxyphenyl)-8-fluoropyrrolo[1,2-d][1,2,4]triazin-4-yl]amino}piperidin-1-yl]ethan-1-ol] |
| 10 to 100 nM | COc1ccc(-c2nnc(NC3CC(C(C)(C)O)C3)n3cncc23)c(CC(F)(F)F)c1 (centres unmarked) [Compound 327, 2-[3-({1-[4-methoxy-2-(2,2,2-trifluoroethyl)phenyl]imidazo[1,5-d][1,2,4]triazin-4-yl}amino)cyclobutyl]propan-2-ol] |
| < 1 nM | O[C@H]1CCC[C@@H](Nc2nnc(-c3ccc(C(F)(F)F)cc3CC(F)(F)F)c3cncn23)C1 [Compound 262, (1S,3R)-3-({1-[2-(2,2,2-trifluoroethyl)-4-(trifluoromethyl)phenyl]imidazo[1,5-d][1,2,4]triazin-4-yl}amino)cyclohexan-1-ol] |
| 10 to 100 nM | CN(C)C1CCCN(c2nnc(-c3ccc(C(F)(F)F)cc3C(F)(F)F)c3cccn23)C1 (centres unmarked) [Compound 7, 1-{1-[2,4-bis(trifluoromethyl)phenyl]pyrrolo[1,2-d][1,2,4]triazin-4-yl}-N,N-dimethylpiperidin-3-amine] |
| < 1 nM | CN1CCC[C@@H](Nc2nnc(-c3ccc(C(F)(F)F)cc3CC(F)(F)F)c3cccn23)C1 [Compound 40, N-[(3R)-1-methylpiperidin-3-yl]-1-[2-(2,2,2-trifluoroethyl)-4-(trifluoromethyl)phenyl]pyrrolo[1,2-d][1,2,4]triazin-4-amine] |
| 10 to 100 nM | Cc1cc2c(-c3ccc(C(F)(F)F)cc3OC(F)F)nnc(N[C@@H]3CCCC[C@H]3O)n2n1 [Compound 381, (1R,2R)-2-({4-[2-(difluoromethoxy)-4-(trifluoromethyl)phenyl]-2-methylpyrazolo[1,5-d][1,2,4]triazin-7-yl}amino)cyclohexan-1-ol] |
| 1 to 10 nM | C[C@]1(O)C[C@@H](Nc2nnc(-c3ccc(C(F)(F)F)cc3OC(F)F)c3cncn23)C1 [Compound 187, (1s,3s)-3-({1-[2-(difluoromethoxy)-4-(trifluoromethyl)phenyl]imidazo[1,5-d][1,2,4]triazin-4-yl}amino)-1-methylcyclobutan-1-ol] |
| 10 to 100 nM | O[C@H]1CCCC[C@@H]1Nc1nnc(-c2ccc(C(F)(F)F)cc2OC(F)(F)F)c2cncn12 [Compound 290] |
| 1 to 10 nM | O[C@H]1CCC[C@@H](Nc2nnc(-c3ccc(OC(F)F)cc3OC(F)(F)F)c3cccn23)C1 [Compound 153, (1S,3R)-3-({1-[4-(difluoromethoxy)-2-(trifluoromethoxy)phenyl]pyrrolo[1,2-d][1,2,4]triazin-4-yl}amino)cyclohexan-1-ol] |
| 10 to 100 nM | O[C@H]1CCCC[C@@H]1Nc1nnc(-c2ccc(C(F)(F)F)cc2C(F)(F)F)c2cncn12 [Compound 293, (1S,2S)-2-({1-[2,4-bis(trifluoromethyl)phenyl]imidazo[1,5-d][1,2,4]triazin-4-yl}amino)cyclohexan-1-ol] |
| 10 to 100 nM | FC(F)Oc1cc(C(F)(F)F)ccc1-c1nnc(N[C@@H]2CCCOC2)n2cncc12 [Compound 188, 1-[2-(difluoromethoxy)-4-(trifluoromethyl)phenyl]-N-[(3R)-oxan-3-yl]imidazo[1,5-d][1,2,4]triazin-4-amine] |
| < 1 nM | CCN1CCC[C@@H](Nc2nnc(-c3ccc(OC)cc3OC(F)(F)F)c3cncn23)C1 [Compound 209, N-[(3R)-1-ethylpiperidin-3-yl]-1-[4-methoxy-2-(trifluoromethoxy)phenyl]imidazo[1,5-d][1,2,4]triazin-4-amine] |
| 1 to 10 nM | COc1ccc(-c2nnc(N[C@@H]3CCC[C@H](O)C3)n3cncc23)c(CC(F)(F)F)c1 [Compound 302, (1S,3R)-3-({1-[4-methoxy-2-(2,2,2-trifluoroethyl)phenyl]imidazo[1,5-d][1,2,4]triazin-4-yl}amino)cyclohexan-1-ol] |
| < 1 nM | Cc1cc2c(-c3ccc(Cl)cc3OC(F)F)nnc(N[C@@H]3CCCN(C)C3)n2n1 [Compound 358, 4-[4-chloro-2-(difluoromethoxy)phenyl]-2-methyl-N-[(3R)-1-methylpiperidin-3-yl]pyrazolo[1,5-d][1,2,4]triazin-7-amine] |
| < 1 nM | O[C@@H]1CCCC[C@H]1Nc1nnc(-c2ccc(C(F)(F)F)cc2CC(F)(F)F)c2cccn12 [Compound 90, (1R,2R)-2-({1-[2-(2,2,2-trifluoroethyl)-4-(trifluoromethyl)phenyl]pyrrolo[1,2-d][1,2,4]triazin-4-yl}amino)cyclohexan-1-ol] |

| IC50 | SMILES |
| --- | --- |
| 10 to 100 nM | COc1ccc(-c2nnc(NCc3ncnn3C)n3cccc23)c(OC(F)(F)F)c1 [Compound 93, 1-[4-methoxy-2-(trifluoromethoxy)phenyl]-N-[(1-methyl-1H-1,2,4-triazol-5-yl)methyl]pyrrolo[1,2-d][1,2,4]triazin-4-amine] |
| 1 to 10 nM | O[C@@H]1COCC[C@H]1Nc1nnc(-c2ccc(C(F)(F)F)cc2CC(F)(F)F)c2cncn12 [Compound 313, (3S,4R)-4-({1-[2-(2,2,2-trifluoroethyl)-4-(trifluoromethyl)phenyl]imidazo[1,5-d][1,2,4]triazin-4-yl}amino)oxan-3-ol] |
| 1 to 10 nM | O[C@@H]1COCC[C@H]1Nc1nnc(-c2ccc(C3CC3)cc2CC(F)(F)F)c2cncn12 [Compound 351, (3S,4R)-4-({1-[4-cyclopropyl-2-(2,2,2-trifluoroethyl)phenyl]imidazo[1,5-d][1,2,4]triazin-4-yl}amino)oxan-3-ol] |
| 1 to 10 nM | C[C@]1(O)C[C@@H](Nc2nnc(-c3ccc(C(F)(F)F)cc3C3CC3)c3cncn23)C1 [Compound 399, (1s,3s)-3-({1-[2-cyclopropyl-4-(trifluoromethyl)phenyl]imidazo[1,5-d][1,2,4]triazin-4-yl}amino)-1-methylcyclobutan-1-ol] |
| 10 to 100 nM | FC(F)Oc1ccc(-c2nnc(Nc3cc[nH]n3)n3cccc23)c(OC(F)(F)F)c1 [Compound 155, 1-[4-(difluoromethoxy)-2-(trifluoromethoxy)phenyl]-N-(1H-pyrazol-3-yl)pyrrolo[1,2-d][1,2,4]triazin-4-amine] |
| 1 to 10 nM | CCN1CCC[C@@H](Nc2nnc(-c3ccc(C(F)(F)F)cc3C(F)(F)F)c3c(F)ccn23)C1 [Compound 29, 1-[2,4-bis(trifluoromethyl)phenyl]-N-[(3R)-1-ethylpiperidin-3-yl]-8-fluoropyrrolo[1,2-d][1,2,4]triazin-4-amine] |
| 10 to 100 nM | COc1ccc(-c2nnc(N[C@@H]3CCCC[C@H]3O)n3cncc23)c(C2CC2)c1 [Compound 321, (1R,2R)-2-{[1-(2-cyclopropyl-4-methoxyphenyl)imidazo[1,5-d][1,2,4]triazin-4-yl]amino}cyclohexan-1-ol] |
| 1 to 10 nM | C[C@]1(O)C[C@@H](Nc2nnc(-c3ccc(C(F)(F)F)cc3C(F)(F)F)c3cncn23)C1 [Compound 218, (1s,3s)-3-({1-[2,4-bis(trifluoromethyl)phenyl]imidazo[1,5-d][1,2,4]triazin-4-yl}amino)-1-methylcyclobutan-1-ol] |
| 1 to 10 nM | CCN1CCC[C@@H](Nc2nnc(-c3ccc(C)cc3SC)c3cc(C)nn23)C1 [Compound 367, N-[(3R)-1-ethylpiperidin-3-yl]-2-methyl-4-[4-methyl-2-(methylsulfanyl)phenyl]pyrazolo[1,5-d][1,2,4]triazin-7-amine] |
| < 1 nM | O[C@@H]1CCCC[C@H]1Nc1nnc(-c2ccc(C(F)(F)F)cc2C(F)(F)F)c2cncn12 [Compound 243, (1R,2R)-2-({1-[2,4-bis(trifluoromethyl)phenyl]imidazo[1,5-d][1,2,4]triazin-4-yl}amino)cyclohexan-1-ol] |
| 10 to 100 nM | COc1ccc(-c2nnc(N[C@H]3C[C@@](C)(O)C3)n3ccc(F)c23)c(Cl)c1 [Compound 84, (1s,3s)-3-{[1-(2-chloro-4-methoxyphenyl)-8-fluoropyrrolo[1,2-d][1,2,4]triazin-4-yl]amino}-1-methylcyclobutan-1-ol] |
| 1 to 10 nM | Cc1ccc(-c2nnc(N[C@@H]3CCCN(C)C3)n3cc(C)cc23)c(OC(F)F)c1 [Compound 25, 1-[2-(difluoromethoxy)-4-methylphenyl]-7-methyl-N-[(3R)-1-methylpiperidin-3-yl]pyrrolo[1,2-d][1,2,4]triazin-4-amine] |
| 10 to 100 nM | COc1ccc(-c2nnc(NCCO)n3cccc23)c(OC(F)(F)F)c1 [Compound 64, 2-({1-[4-methoxy-2-(trifluoromethoxy)phenyl]pyrrolo[1,2-d][1,2,4]triazin-4-yl}amino)ethan-1-ol] |
| 100 to 300 nM | FC(F)(F)Oc1cc(C(F)(F)F)ccc1-c1nnc(Nc2cc[nH]n2)n2cccc12 [Compound 150, N-(1H-pyrazol-3-yl)-1-[2-(trifluoromethoxy)-4-(trifluoromethyl)phenyl]pyrrolo[1,2-d][1,2,4]triazin-4-amine] |
| 10 to 100 nM | Cc1ccc(-c2nnc(N[C@H]3C[C@@H](CO)C3)n3cncc23)c(OC(F)(F)F)c1 [Compound 347, [(1s,3s)-3-({1-[4-methyl-2-(trifluoromethoxy)phenyl]imidazo[1,5-d][1,2,4]triazin-4-yl}amino)cyclobutyl]methanol] |
| 1 to 10 nM | O[C@@H]1CCCCC[C@@H]1Nc1nnc(-c2ccc(C(F)(F)F)cc2CC(F)(F)F)c2cccn12 (racemic) [Compound 126, (1S,2R)-2-({1-[2-(2,2,2-trifluoroethyl)-4-(trifluoromethyl)phenyl]pyrrolo[1,2-d][1,2,4]triazin-4-yl}amino)cycloheptan-1-ol AND (1R,2S)-2-({1-[2-(2,2,2-trifluoroethyl)-4-(trifluoromethyl)phenyl]pyrrolo[1,2-d][1,2,4]triazin-4-yl}amino)cycloheptan-1-ol] |
